The results in this text go back to US12649751B2 (Arcus Biosciences, Inc., priority 2022, dated 2026).

One assay concerns the target HPK1 (Homo sapiens, UniProt Q92918). The assay can be described thus: HPK1 Biochemical Assay (ADP-Glo luminescence; low ATP 10 μM or high ATP 200 μM).
Assay [1] concerns p-SLP-76 (Ser376) in Jurkat cells. Description: pSLP76 Cellular Assay (AlphaLISA SureFire Ultra p-SLP-76 (Ser376), anti-CD3 activated Jurkat cells). The following applies: Homo sapiens, read-out: Cellular Potency. The assay is classed as cell-based. The method in brief:
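Read-out is AlphaLISA p-SLP-76 (Ser376) signal at 570 nm in Jurkat lysates, with IC50 fitted by 4-parameter logistic. Cells were starved overnight, exposed 1 h at 37 °C to 22 twofold compound dilutions in HBSS, then activated 45 min with anti-CD3 (0.025 mg/ml stock added).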

Where [2] appears, read: 2 nM HPK1, 10 μM ATP, read-out: Biochemical Potency (low ATP).
[3] abbreviates: Jurkat cells, anti-CD3 stimulation, pSLP76.
Setting [4] is: HPK1 ADP-Glo assay, high ATP (200 μM ATP, 5 nM HPK1), read-out: Biochemical Potency (high ATP).
Where [5] appears, read: pSLP76 (Ser376) AlphaLISA, anti-CD3 activated Jurkat cells.
The mark [6] stands for this setting: HPK1 ADP-Glo assay, low ATP (10 μM ATP, 2 nM HPK1), read-out: Biochemical Potency (low ATP).

SMILES strings stand for the structures. Read-outs that look alike come from different tables or passages of the source. Where only a bound is given, the exact number is not on record here.

Chain of HPK1 (Q92918 whole entry, species assumed): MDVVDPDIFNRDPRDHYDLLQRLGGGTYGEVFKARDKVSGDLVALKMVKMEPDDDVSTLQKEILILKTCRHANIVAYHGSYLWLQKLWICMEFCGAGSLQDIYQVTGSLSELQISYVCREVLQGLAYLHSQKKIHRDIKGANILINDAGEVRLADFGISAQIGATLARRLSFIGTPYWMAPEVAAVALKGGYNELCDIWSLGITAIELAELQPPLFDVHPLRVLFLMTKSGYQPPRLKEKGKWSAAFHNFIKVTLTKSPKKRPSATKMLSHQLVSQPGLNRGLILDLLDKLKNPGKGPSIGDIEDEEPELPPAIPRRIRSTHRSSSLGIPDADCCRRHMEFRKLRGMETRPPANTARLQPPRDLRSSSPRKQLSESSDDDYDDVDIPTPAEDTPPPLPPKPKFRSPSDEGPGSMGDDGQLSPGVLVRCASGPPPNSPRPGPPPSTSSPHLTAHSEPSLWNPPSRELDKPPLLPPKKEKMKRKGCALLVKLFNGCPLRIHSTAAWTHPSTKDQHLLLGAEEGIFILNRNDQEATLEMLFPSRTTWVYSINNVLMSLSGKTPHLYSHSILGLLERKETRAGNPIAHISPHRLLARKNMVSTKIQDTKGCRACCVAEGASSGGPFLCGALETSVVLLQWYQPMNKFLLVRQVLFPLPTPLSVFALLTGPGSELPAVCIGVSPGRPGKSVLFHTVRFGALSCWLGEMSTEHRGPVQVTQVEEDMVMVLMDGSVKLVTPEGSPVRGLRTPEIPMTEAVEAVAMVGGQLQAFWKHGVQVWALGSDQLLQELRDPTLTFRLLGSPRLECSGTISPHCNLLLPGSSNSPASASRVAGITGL

As to `Cc1cccnc1-c1nc2cc(Nc3ccc(C)c(N4C[C@@H](N)C[C@H]4CO)n3)ncc2s1` [Example 65, [(2S,4S)-4-Amino-1-(3-methyl-6-{[2-(3-methylpyridin-2-yl)-[1,3]thiazolo[5,4-c]pyridin-6-yl]amino}pyridin-2-yl)pyrrolidin-2-yl]methanol], the IC50 at HPK1 (setting [2]) is < 100 nM; in assay [1] (setting [3]), 100 to 1000 nM.
Regarding `Cc1cc(Nc2cc3nc(-c4cccc(OC(F)F)c4)sc3cn2)nc(N2C[C@@H]3C[C@H]2CN3C)n1` [Example 390], the IC50 was < 100 nM on HPK1 (setting [4]) and 100 to 1000 nM in assay [1] (setting [5]).
For `Cc1cc(Nc2cc3nc(-c4cccc(C(=O)N5CCCCC5)c4)sc3cn2)nc(N2C[C@@H]3C[C@H]2CN3CCO)n1` [Example 352] the same measures were < 100 nM and < 100 nM.
As to `Cc1cccnc1-c1nc2cc(Nc3ccc4c(n3)CN(C)CC4)ncc2s1` [Example 327], the IC50 was < 100 nM at HPK1 (setting [6]) and 100 to 1000 nM in assay [1] (setting [5]).
Regarding `Cc1ccc(-c2nc3cc(Nc4cccc(N5C[C@@H]6C[C@H]5CN6C)n4)ncc3s2)c(C)n1` [Example 129, N-[2-(2,6-Dimethylpyridin-3-yl)-[1,3]thiazolo[5,4-c]pyridin-6-yl]-6-[(1S,4S)-5-methyl-2,5-diazabicyclo[2.2.1]heptan-2-yl]pyridin-2-amine], the figures for the IC50 (at HPK1 (setting [2]); in assay [1] (setting [3])) were < 100 nM and > 5000 nM, respectively.
With `CN(C)Cc1nc(Nc2cc3nc(-c4c(F)cccc4F)sc3cn2)ccc1N1CCOCC1` [Example 1, N-[2-(2,6-Difluorophenyl)-[1,3]thiazolo[5,4-c]pyridin-6-yl]-6-[(dimethylamino)methyl]-5-(morpholin-4-yl)pyridin-2-amine], the IC50 is < 100 nM at HPK1 (setting [2]) and > 5000 nM in assay [1] (Jurkat).
As for `Cc1cccnc1-c1nc2cc(Nc3cccc(N4C[C@H](N)C[C@H]4CO)n3)ncc2s1` [Example 70, [(2S,4R)-4-Amino-1-(6-{[2-(3-methylpyridin-2-yl)-[1,3]thiazolo[5,4-c]pyridin-6-yl]amino}pyridin-2-yl)pyrrolidin-2-yl]methanol], the IC50 on HPK1 (setting [2]) is < 100 nM; in assay [1] (setting [3]), 100 to 1000 nM.
As for `Cc1cc(Nc2cc3nc(-c4ccc(=O)n(C)c4)sc3cn2)nc(N2C[C@@H]3C[C@H]2CN3C)n1` [Example 391], the IC50 on HPK1 (setting [4]) lay in the range of 100 to 1000 nM; in assay [1] (setting [5]), 1000 to 5000 nM.
Turning to `CN(C)Cc1nc(Nc2cccc(F)c2-c2nc3cc(Cl)ncc3s2)ccc1N1CCOCC1` [Example 19, N-(2-{6-Chloro-[1,3]thiazolo[5,4-c]pyridin-2-yl}-3-fluorophenyl)-6-[(dimethylamino)methyl]-5-(morpholin-4-yl)pyridin-2-amine], the IC50 (at HPK1 (setting [2]); in assay [1] (setting [3])) was > 5000 nM throughout.
Turning to `Cc1cc(Nc2cc3nc(-c4cnn(CS(C)(=O)=O)c4)sc3cn2)nc(N2C[C@@H]3C[C@H]2CN3CCO)n1` [Example 369], the IC50 is < 100 nM on HPK1 (setting [4]) and 100 to 1000 nM in assay [1] (setting [5]).
On the same counts, the results for `Cc1cc(Nc2cc3nc(-c4cnn(C)c4)sc3cn2)nc(N2C[C@@H]3C[C@H]2CN3CCO)n1` [Example 301, 2-[(1S,4S)-5-(4-Methyl-6-{[2-(1-methyl-1H-pyrazol-4-yl)-[1,3]thiazolo[5,4-c]pyridin-6-yl]amino}pyrimidin-2-yl)-2,5-diazabicyclo[2.2.1]heptan-2-yl]ethan-1-ol] are < 100 nM and < 100 nM.
In the case of `Cc1cc(Nc2cc3nc(-c4cnn(C)c4C(=O)N(C)C)sc3cn2)nc(N2C[C@@H]3C[C@H]2CN3C)n1` [Example 372], the IC50 was < 100 nM on HPK1 (setting [4]) and 100 to 1000 nM in assay [1] (setting [5]).
`CCN1C[C@@H]2C[C@H]1CN2c1nc(C)cc(Nc2cc3nc(-c4cccc(C(=O)NC5CCOCC5)c4)sc3cn2)n1` [Example 532]: the IC50 on HPK1 (setting [4]) is < 100 nM; in assay [1] (setting [5]), 100 to 1000 nM.
For `Cc1cc(Nc2cc3nc(-c4cccc(C(=O)N5CCC[C@H]5C)c4)sc3cn2)nc(N2C[C@@H]3C[C@H]2CN3CCO)n1` [Example 550] the same measures were < 100 nM and 100 to 1000 nM.
On to `CCN1C[C@@H]2C[C@H]1CN2c1nc(C)cc(Nc2cc3nc(-c4cccc(C(=O)Nc5ccccc5)c4)sc3cn2)n1` [Example 522], for which the IC50 on HPK1 (setting [4]) was < 100 nM; in assay [1] (setting [5]) it was 100 to 1000 nM.
For `Cc1ccc(Nc2cc3nc(-c4ccnnc4)sc3cn2)nc1CN1CCCC1` [Example 57, 5-Methyl-N-[2-(pyridazin-4-yl)-[1,3]thiazolo[5,4-c]pyridin-6-yl]-6-[(pyrrolidin-1-yl)methyl]pyridin-2-amine], the IC50 on HPK1 (setting [2]) was < 100 nM; in assay [1] (setting [3]), 1000 to 5000 nM.
For `Cc1cc(Nc2cc3nc(-c4cccc(C(=O)N5CCOC[C@H]5C)c4)sc3cn2)nc(N2C[C@@H]3C[C@H]2CN3CCO)n1` [Example 547], the IC50 on HPK1 (setting [4]) was < 100 nM; in assay [1] (setting [5]), 100 to 1000 nM.
As to `Cc1cc(Nc2cc3nc(-c4ccnc(O[C@H]5CCOC5)c4)sc3cn2)nc(N2C[C@@H]3C[C@H]2CN3C)n1` [Example 482], the figures for the IC50 (on HPK1 (setting [4]); in assay [1] (setting [5])) were < 100 nM and 1000 to 5000 nM, respectively.
In the case of `CN1C[C@@H]2C[C@H]1CN2c1cccc(Nc2cc3nc(-c4cncc(S(C)(=O)=O)c4)sc3cn2)n1` [Example 131, N-[2-(5-Methanesulfonylpyridin-3-yl)-[1,3]thiazolo[5,4-c]pyridin-6-yl]-6-[(1S,4S)-5-methyl-2,5-diazabicyclo[2.2.1]heptan-2-yl]pyridin-2-amine], the IC50 at HPK1 (setting [2]) was < 100 nM; in assay [1] (setting [3]), 1000 to 5000 nM.
For the molecule `Cc1cc(Nc2cc3nc(-c4cc(C(=O)N(C)C)cc(C(C)C)c4)sc3cn2)nc(N2C[C@@H]3C[C@H]2CN3CCO)n1` [Example 551], the IC50 (on HPK1 (setting [4]); in assay [1] (setting [5])) was < 100 nM throughout.
In the case of `CN(C)C(=O)c1cccc(-c2nc3cc(Nc4cccc(N5C[C@@H]6C[C@H]5CN6C)n4)ncc3s2)c1` [Example 137, N,N-Dimethyl-3-[6-({6-[(1S,4S)-5-methyl-2,5-diazabicyclo[2.2.1]heptan-2-yl]pyridin-2-yl}amino)-[1,3]thiazolo[5,4-c]pyridin-2-yl]benzamide], the results for the IC50 (on HPK1 (setting [2]); in assay [1] (setting [3])) were < 100 nM and 100 to 1000 nM, respectively.
As for `Cc1cccnc1-c1nc2cc(Nc3cccc(N4C[C@@H]5C[C@H]4CN5)n3)ncc2s1` [Example 78, 6-[(1S,4S)-2,5-Diazabicyclo[2.2.1]heptan-2-yl]-N-[2-(3-methylpyridin-2-yl)-[1,3]thiazolo[5,4-c]pyridin-6-yl]pyridin-2-amine], the IC50 is < 100 nM on HPK1 (setting [2]) and 100 to 1000 nM in assay [1] (setting [3]).
`Cc1cccnc1-c1nc2cc(Nc3ccc(C4CCOC4)c(CN4CCCC4)n3)ncc2s1` (racemic) [Example 252, N-[2-(3-Methylpyridin-2-yl)-[1,3]thiazolo[5,4-c]pyridin-6-yl]-5-(oxolan-3-yl)-6-[(pyrrolidin-1-yl)methyl]pyridin-2-amine]: the IC50 on HPK1 (setting [2]) was < 100 nM; in assay [1] (setting [3]), 100 to 1000 nM.
As to `Cc1ccnn1-c1nc2cc(Nc3cccc(N4C[C@@H]5C[C@H]4CN5C)n3)ncc2s1` [Example 205, N-[2-(5-Methyl-1H-pyrazol-1-yl)-[1,3]thiazolo[5,4-c]pyridin-6-yl]-6-[(1S,4S)-5-methyl-2,5-diazabicyclo[2.2.1]heptan-2-yl]pyridin-2-amine], the IC50 is < 100 nM on HPK1 (setting [2]); < 100 nM at HPK1 (5 nM HPK1, 200 μM ATP, read-out: Biochemical Potency (high ATP)); 100 to 1000 nM in assay [1] (setting [3]).
Take `COc1cccc(F)c1-c1nc2cc(Nc3ccc(N4CCOCC4)c(CN(C)C)n3)ncc2s1` [Example 26, 6-[(Dimethylamino)methyl]-N-[2-(2-fluoro-6-methoxyphenyl)-[1,3]thiazolo[5,4-c]pyridin-6-yl]-5-(morpholin-4-yl)pyridin-2-amine]: the IC50 is < 100 nM on HPK1 (setting [2]) and 100 to 1000 nM in assay [1] (setting [3]).
In the case of `Cc1cc(Nc2cc3nc(-c4ccnc(N5CCOCC5)c4)sc3cn2)nc(N2C[C@@H]3C[C@H]2CN3CCO)n1` [Example 458], the IC50 at HPK1 (setting [4]) is < 100 nM; in assay [1] (setting [5]), 100 to 1000 nM.
For `CCOCCN1C[C@@H]2C[C@H]1CN2c1nc(C)cc(Nc2cc3nc(-c4cccc(C(=O)N(C)C)c4)sc3cn2)n1` [Example 489] the same measures were < 100 nM and 100 to 1000 nM.
On the same counts, the results for `CCN1C[C@@H]2C[C@H]1CN2c1nc(C)cc(Nc2cc3nc(-c4ccnc(N5CCOC[C@H]5C(C)C)c4)sc3cn2)n1` [Example 474] are < 100 nM and < 100 nM.
For `CCN1C[C@@H]2C[C@H]1CN2c1nc(Nc2cc3nc(-c4cccc(C(=O)N5CCC(F)CC5)c4)sc3cn2)ccc1C` [Example 321] the same measures were < 100 nM and 100 to 1000 nM.
For the molecule `Cc1cc(Nc2cc3nc(-c4cccc(CC(=O)N(C)C)c4)sc3cn2)nc(N2C[C@@H]3C[C@H]2CN3C)n1` [Example 395], the IC50 (at HPK1 (setting [4]); in assay [1] (setting [5])) was 100 to 1000 nM throughout.
Regarding `Cc1cccnc1-c1nc2cc(Nc3ccc4c(n3)[C@](C)(N)CC4)ncc2s1` [Example 577], the IC50 was < 100 nM on HPK1 (setting [6]) and 1000 to 5000 nM in assay [1] (setting [5]).
For `CCN1C[C@@H]2C[C@H]1CN2c1nc(C)cc(Nc2cc3nc(N[C@H](C)c4ccccc4)sc3cn2)n1` [Example 425], the IC50 is < 100 nM at HPK1 (setting [4]) and 1000 to 5000 nM in assay [1] (setting [5]).
Consider `CCN1C[C@@H]2C[C@H]1CN2c1nc(C)cc(Nc2cc3nc(-c4cccc(C(=O)N5CCC(C)CC5)c4)sc3cn2)n1` [Example 517], for which the IC50 (on HPK1 (setting [4]); in assay [1] (setting [5])) was < 100 nM in each case.
